# According to patent publication US7846945B2, “Piperdine-based inhibitors of sodium glucose co-transporter 2 and methods of their use” (Lexicon Pharmaceuticals, Inc., priority 2007, dated 2010):
# Target: T1, Human sodium/glucose co-transporter type 2 (SGLT2) (Homo sapiens, UniProt P31639)
# T1 construct: HA; expressed in transfected cells
# T1 sequence (P31639 1-672): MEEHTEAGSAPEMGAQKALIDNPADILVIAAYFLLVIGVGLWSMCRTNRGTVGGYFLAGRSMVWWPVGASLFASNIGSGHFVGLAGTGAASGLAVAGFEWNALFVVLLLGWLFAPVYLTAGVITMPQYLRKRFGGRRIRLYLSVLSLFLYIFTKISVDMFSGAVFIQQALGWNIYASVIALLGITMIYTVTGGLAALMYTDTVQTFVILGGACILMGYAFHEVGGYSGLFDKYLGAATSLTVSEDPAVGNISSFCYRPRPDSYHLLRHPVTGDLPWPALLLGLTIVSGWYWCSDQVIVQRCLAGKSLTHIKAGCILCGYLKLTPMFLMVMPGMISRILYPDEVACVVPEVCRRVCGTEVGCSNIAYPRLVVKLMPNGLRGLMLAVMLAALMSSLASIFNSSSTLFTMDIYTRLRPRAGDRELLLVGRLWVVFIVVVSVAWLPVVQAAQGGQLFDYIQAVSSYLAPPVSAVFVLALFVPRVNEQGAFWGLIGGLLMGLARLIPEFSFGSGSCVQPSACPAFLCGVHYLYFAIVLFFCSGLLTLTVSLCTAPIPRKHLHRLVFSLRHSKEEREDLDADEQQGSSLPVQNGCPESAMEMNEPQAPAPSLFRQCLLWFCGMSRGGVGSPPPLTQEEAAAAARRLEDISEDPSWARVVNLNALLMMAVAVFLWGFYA
# Experiment: In vitro human SGLT2 inhibition assay (14C-AMG uptake)
# Type: cell-based
# Details: HEK293 cells expressing human HA-SGLT2; potent = SGLT2 IC50 of less than about 500 nM; read-out: SGLT2 IC50 (potent SGLT2 inhibitor mark)
# Method: HEK293 cells were transfected with the human HA-SGLT2-pIRESpuro2 vector and the bulk stable cell line was selected in presence of 0.5 μg/ml of puromycin. Human HA-SGLT2 cells were maintained in DMEM media containing 10% FBS, 1% GPS and 0.5 μg/ml of puromycin.
# The HEK293 cells expressing the human HA-SGLT2 were seeded in 384 well plates (30,000 cells/well) in DMEM media containing 10% FBS, 1% GPS and 0.5 μg/ml of puromycin, then incubated overnight at 37 C, 5% CO2. Cells were then washed with uptake buffer (140 mM NaCl, 2 mM KCl, 1 mM CaCl2, 1 mM MgCl2, 10 mM HEPES, 5 mM Tris, 1 mg/ml bovine serum albumin (BSA), pH 7.3). Twenty microliters of uptake buffer with or without testing compounds were added to the cells. Then, 20 microliters of uptake buffer containing ^14C-AMG (100 nCi) were added to the cells. The cell plates were incubated at 37° C., 5% CO2 for 1-2 hours. After washing the cells with uptake buffer, scintillation fluid was added (40 microliters/well) and ^14C-AMG uptake was measured by counting radioactivity using a scintillation coulter (TopCoulter NXT; Packard Instruments).
# The IC50 of a compound with regard to a given target is determined by fitting the relevant data, using the Levenburg Marquardt algorithm, to the equation: y=A+((B−A)/(1+((C/x)^D))) wherein A is the minimum y value; B is the maximum y value; C is the IC50; and D is the slope.
row,IC50 [nM],Compound
1,< 500,"CCOc1ccc(Cc2cc([C@@H]3O[C@H](SCCO)[C@@H](O)[C@H](O)[C@H]3O)ccc2Cl)cc1 [(2S,3R,4R,5S,6R)-2-[4-Chloro-3-(4-ethoxy-benzyl)-phenyl]-6-(2-hydroxy-ethylsulfanyl)-tetrahydro-pyran-3,4,5-triol]"
2,< 500,"CCOc1ccc(Cc2cc([C@@H]3O[C@H](SC4CCOC4C)[C@@H](O)[C@H](O)[C@H]3O)ccc2Cl)cc1 (stereo partly drawn) [(2S,3R,4R,5S,6R)-2-[4-Chloro-3-(4-ethoxy-benzyl)-phenyl]-6-(2-methyl-tetrahydro-furan-3-ylsulfanyl)-tetrahydro-pyran-3,4,5-triol]"
3,< 500,"CCOc1ccc(Cc2cc([C@@H]3O[C@H](SCCC(C)C)[C@@H](O)[C@H](O)[C@H]3O)ccc2Cl)cc1 [(2S,3R,4R,5S,6R)-2-[4-Chloro-3-(4-ethoxy-benzyl)-phenyl]-6-(3-methyl-butylsulfanyl)-tetrahydro-pyran-3,4,5-triol]"
4,< 500,"CCOc1ccc(Cc2cc([C@@H]3O[C@H](SCc4ccco4)[C@@H](O)[C@H](O)[C@H]3O)ccc2Cl)cc1 [(2S,3R,4R,5S,6R)-2-[4-Chloro-3-(4-ethoxy-benzyl)-phenyl]-6-(furan-2-ylmethylsulfanyl)-tetrahydro-pyran-3,4,5-triol]"
5,< 500,"CCOc1ccc(Cc2cc([C@@H]3O[C@H](SC4CCCC4)[C@@H](O)[C@H](O)[C@H]3O)ccc2Cl)cc1 [(2S,3R,4R,5S,6R)-2-[4-Chloro-3-(4-ethoxy-benzyl)-phenyl]-6-cyclopentylsulfanyl-tetrahydro-pyran-3,4,5-triol]"
6,< 500,"CCOc1ccc(Cc2cc([C@@H]3O[C@H]([S+]([O-])CC)[C@@H](O)[C@H](O)[C@H]3O)ccc2Cl)cc1 (stereo partly drawn) [(2S,3R,4R,5S,6R)-2-[4-Chloro-3-(4-ethoxy-benzyl)-phenyl]-6-ethanesulfinyl-tetrahydro-pyran-3,4,5-triol]"
7,< 500,"CCOc1ccc(Cc2cc([C@@H]3O[C@H](SCC)[C@@H](O)[C@H](O)[C@H]3O)ccc2Cl)cc1 [(2S,3R,4R,5S,6R)-2-[4-Chloro-3-(4-ethoxy-benzyl)-phenyl]-6-ethylsulfanyl-tetrahydro-pyran-3,4,5-triol]"
8,< 500,"CCOc1ccc(Cc2cc([C@@H]3O[C@H]([S+](C)[O-])[C@@H](O)[C@H](O)[C@H]3O)ccc2Cl)cc1 (stereo partly drawn) [(2S,3R,4R,5S,6R)-2-[4-Chloro-3-(4-ethoxy-benzyl)-phenyl]-6-methanesulfinyl-tetrahydro-pyran-3,4,5-triol]"
9,< 500,"CCOc1ccc(Cc2cc([C@@H]3O[C@H](Oc4ccccc4)[C@@H](O)[C@H](O)[C@H]3O)ccc2Cl)cc1 [(2S,3R,4R,5S,6R)-2-[4-Chloro-3-(4-ethoxy-benzyl)-phenyl]-6-phenoxy-tetrahydro-pyran-3,4,5-triol]"
10,< 500,"CO[C@H]1O[C@@H](c2ccc(Cl)c(Cc3ccc(O[C@@H]4CCOC4)cc3)c2)[C@H](O)[C@@H](O)[C@@H]1O [(2S,3R,4R,5S,6S)-2-(4-Chloro-3-{4-[(R)-(tetrahydro-furan-3-yl)oxy]-benzyl}-phenyl)-6-methoxy-tetrahydro-pyran-3,4,5-triol]"
11,< 500,"CCOc1ccc(Cc2cc([C@@H]3O[C@H](OCCO)[C@@H](O)[C@H](O)[C@H]3O)ccc2Cl)cc1 [(2S,3R,4R,5S,6S)-2-[4-Chloro-3-(4-ethoxy-benzyl)-phenyl]-6-(2-hydroxy-ethoxy)-tetrahydro-pyran-3,4,5-triol]"
12,< 500,"CCOc1ccc(C(O)c2cc([C@@H]3O[C@H](OC)[C@@H](O)[C@H](O)[C@H]3O)ccc2Cl)cc1 (stereo partly drawn) [(2S,3R,4R,5S,6S)-2-{4-Chloro-3-[(4-ethoxy-phenyl)-hydroxy-methyl]-phenyl}-6-methoxy-tetrahydro-pyran-3,4,5-triol]"
13,< 500,"CCOc1ccc(Cc2cc([C@H]3[C@H](O)[C@@H](O)[C@H](O)CN3Cc3ccccc3)ccc2Cl)cc1 [(2S,3S,4S,5R)-1-Benzyl-2-[4-chloro-3-(4-ethoxy-benzyl)-phenyl]-piperidine-3,4,5-triol]"
14,< 500,"CCOc1ccc(Cc2cc([C@H]3[C@H](O)[C@@H](O)[C@H](O)CN3CC(C)C)ccc2Cl)cc1 [(2S,3S,4S,5R)-2-[4-Chloro-3-(4-ethoxy-benzyl)-phenyl]-1-isobutyl-piperidine-3,4,5-triol]"
15,< 500,"C=CCNC(=O)N1C[C@@H](O)[C@H](O)[C@@H](O)[C@@H]1c1ccc(Cl)c(Cc2ccc(OCC)cc2)c1 [(2S,3S,4S,5R)-2-[4-Chloro-3-(4-ethoxy-benzyl)-phenyl]-3,4,5-trihydroxy-piperidine-1-carboxylic acid allyl amide]"
16,< 500,"CCOc1ccc(Cc2cc(C3NC(CO)[C@@H](O)[C@H](O)[C@H]3O)ccc2Cl)cc1 (stereo partly drawn) [(3S,4R,5R)-2-[4-Chloro-3-(4-ethoxy-benzyl)-phenyl]-6-hydroxymethyl-piperidine-3,4,5-triol]"
17,< 500,"CCOc1ccc(Cc2cc([C@@H]3OC(OCc4ccccc4)[C@@H](O)[C@H](O)[C@H]3O)ccc2Cl)cc1 (stereo partly drawn) [(3S,4R,5R,6S)-2-Benzyloxy-6-[4-chloro-3-(4-ethoxy-benzyl)-phenyl]-tetrahydro-pyran-3,4,5-triol]"
18,< 500,"CCOc1ccc(Cc2cc([C@@H]3O[C@H](SC[C@H](N)C(=O)O)[C@@H](O)[C@H](O)[C@H]3O)ccc2Cl)cc1 [(R)-2-Amino-3-{(2R,3S,4R,5R,6S)-6-[4-chloro-3-(4-ethoxy-benzyl)-phenyl]-3,4,5-trihydroxy-tetrahydro-pyran-2-ylsulfanyl}-propionic acid]"
19,< 500,"COC1O[C@@H](c2ccc(Cl)c(Cc3ccc(OC(=S)N(C)C)cc3)c2)[C@H](O)[C@@H](O)[C@@H]1O (stereo partly drawn) [Dimethyl-thiocarbamic acid O-{4-[2-chloro-5-((2S,3R,4R,5S)-3,4,5-trihydroxy-6-methoxy-tetrahydro-pyran-2-yl)-benzyl]-phenyl} ester]"
20,< 500,"CCOc1ccc(Cc2cc([C@@H]3O[C@H](SCCNC(C)=O)[C@@H](O)[C@H](O)[C@H]3O)ccc2Cl)cc1 [N-(2-{(2R,3S,4R,5R,6S)-6-[4-Chloro-3-(4-ethoxy-benzyl)-phenyl]-3,4,5-trihydroxy-tetrahydro-pyran-2-ylsulfanyl}-ethyl)-acetamide]"
21,< 500,"CCOc1ccc(C(=O)c2cc([C@@H]3O[C@H](OC)[C@@H](O)[C@H](O)[C@H]3O)ccc2Cl)cc1 [[2-Chloro-5-((2S,3R,4R,5S,6S)-3,4,5-trihydroxy-6-methoxy-tetrahydro-pyran-2-yl)-phenyl]-(4-ethoxy-phenyl)-methanone]"
22,< 500,"CCOc1ccc(Cc2cc([C@@H]3OC(OCC(=O)OC)[C@@H](O)[C@H](O)[C@H]3O)ccc2Cl)cc1 (stereo partly drawn) [{(3S,4R,5R,6S)-6-[4-Chloro-3-(4-ethoxy-benzyl)-phenyl]-3,4,5-trihydroxy-tetrahydro-pyran-2-yloxy}-acetic acid methyl ester]"

row,Compound,IC50 [nM]
1,"CCOc1ccc(Cc2cc([C@@H]3O[C@H](SC)[C@@H](O)[C@H](O)[C@H]3O)ccc2Cl)cc1 [(2S,3R,4R,5S,6R)-2-[4-Chloro-3-(4-ethoxy-benzyl)-phenyl]-6-methylsulfanyl-tetrahydro-pyran-3,4,5-triol]",< 500
